Where a name gives a salt, the structure may show the parent alone. Read-outs that look alike come from different tables or passages of the source.
Assays:
OC43 = assay: Drug screening: OC43 nucleoprotein staining in infected A549-mRuby cells; type: cell-based, human beta coronavirus OC43
Experimental: A549-mRuby cells were seeded (3,000 cells per well) in nine 384-well plates using Multidrop combi. Cells were seeded in a final volume of 30 μl with DMEM+10% BCS. The following day, 20 μl of OC43 were added (MOI 0.3) and incubated at 33° C., 5% CO2 for 1 hour. 50 nl from the Selleck FDA-approved drug library (cat #L1300, Selleck) were added (1:1,000 dilution). Two columns (32 wells) were left uninfected and two columns were treated with DMSO and virus (no drug control). Cells were imaged using the IncuCyte S3 to measure cell numbers at day 0. Cells were incubated for 4 days at 33° C., 5% CO2 and were stained for OC43 nucleoprotein. All the following steps were performed at room temperature. Cells were fixed in 50 μl 4% PFA/PBS for 15 min, blocked with 50 μl 10% BSA+0.5% Triton X-100 in PBS for 30 minutes, stained with 50 μl anti-OC43 (cat #MAB9013, Milipore) diluted 1:2,000 in 2% BSA+0.1% Triton X-100 in PBS for 1 hour, washed with 50 μl PBS three times, stained with anti-mouse-AlexaFluor488 diluted 1:1,000 in 2% BSA+0.1% Triton X-100 in PBS for 1 hour, washed with 50 μl PBS three times and imaged on the IncuCyte S3 (day 4). The screen was performed twice.
(§1) The following parameters were extracted from the images: number of cells at day 0, number of cells at day 4 and total OC43 staining intensity at day 4. For analysis, OC43 staining intensity was normalized to the number of cells in the well and further normalized to the mean of the no drug controls, which was set to 100. […] For each plate, a drug was considered as a putative hit if it reduced OC43 staining by over 3 standard deviations from the mean of the no drug controls. Drugs were considered hits if they were not toxic and reduced OC43 staining by over 3 standard deviations in both repeats.
(§2) A library of 1,900 clinically used drugs was screened, the drugs either approved for human use or having extensive safety data in humans (Phase 2 or 3 clinical trials), for their ability to inhibit OC43 infection of the human lung epithelial cell line A549 (expressing an H2B-mRuby nuclear reporter). One day after plating, cells were infected at an MOI of 0.3, incubated at 33° C. for 1 hour and drugs were added to a final concentration of 10 μM. Cells were then incubated at 33° C. for 4 days, fixed and stained for the presence of the viral nucleoprotein. The cells were imaged at day 0 (following drug addition) and day 4 (after staining) to determine the drugs effect on cell growth and OC43 infection.

A549-mRuby cells = assay: Drug screening: effect on cell growth (cell number day 4 / day 0); settings: 10 μM drug; for Growth_1: number of cells at day 4 divided by number of cells at day 0 / toxic_1: repeat #1; for Growth_2: number of cells at day 4 divided by number of cells at day 0 / toxic_2: repeat #2
Experimental: A549-mRuby cells were seeded (3,000 cells per well) in nine 384-well plates using Multidrop combi. Cells were seeded in a final volume of 30 μl with DMEM+10% BCS. The following day, 20 μl of OC43 were added (MOI 0.3) and incubated at 33° C., 5% CO2 for 1 hour. 50 nl from the Selleck FDA-approved drug library (cat #L1300, Selleck) were added (1:1,000 dilution). Two columns (32 wells) were left uninfected and two columns were treated with DMSO and virus (no drug control). Cells were imaged using the IncuCyte S3 to measure cell numbers at day 0. Cells were incubated for 4 days at 33° C., 5% CO2 and were stained for OC43 nucleoprotein. All the following steps were performed at room temperature. […] The screen was performed twice.
as §1, §2

[1] = Betacoronavirus 1, OC43, 96 h, 10 μM drug, MOI 0.3, 4 days, normalized to no-drug controls in the same plate, repeat #1, read-out: OC43_1: % staining of OC43 in screen repeat #1
[2] = Betacoronavirus 1, OC43, 96 h, 10 μM drug, MOI 0.3, 4 days, normalized to no-drug controls in the same plate, repeat #2, read-out: OC43_2: % staining of OC43 in screen repeat #2
[3] = Betacoronavirus 1, OC43, 96 h, read-out: OC43_mean
[4] = Betacoronavirus 1, OC43, 96 h, 10 μM drug, MOI 0.3, 4 days, OC43 staining normalized to no-drug controls, mean of the two screen repeats, read-out: OC43_mean

Structure (SMILES)	hit_1 (OC43; 10 μM drug, repeat #1)	hit_2 (OC43; 10 μM drug, repeat #2)	activity at 10 µM (OC43; [1])	activity at 10 µM (OC43; [2])	activity at 10 µM (OC43; [3])	Growth_1: number of cells at day 4 divided by number of cells at day 0 (A549-mRuby cells)	toxic_1 (A549-mRuby cells)	Growth_2: number of cells at day 4 divided by number of cells at day 0 (A549-mRuby cells)	toxic_2 (A549-mRuby cells)	activity at 10 µM (OC43; [4])	activity at 10 µM (OC43; Betacoronavirus 1, OC43, 96 h, read-out: OC43_1: % staining of OC43 in screen repeat #1)	activity at 10 µM (OC43; Betacoronavirus 1, OC43, 96 h, read-out: OC43_2: % staining of OC43 in screen repeat #2)	activity at 10 µM (OC43; Betacoronavirus 1, 96 h, 10 μM drug, MOI 0.3, 4 days, OC43 staining normalized to no-drug controls, mean of the two screen repeats, read-out: OC43_mean)
CN(C)CCCC1(c2ccc(F)cc2)OCc2cc(C#N)ccc21 (stereo not drawn) [Citalopram HBr]	1	1	20.4%	44.4%	32.4%	5.1	0	5.1	0	–	–	–	–
CN(C)CCCN1c2ccccc2CCc2ccc(Cl)cc21.O [Clomipramine HCl]	1	1	13.9%	21.6%	17.7%	2.6	0	3.8	0	–	–	–	–
CN1CCN(C2=Nc3cc(Cl)ccc3Nc3ccccc32)CC1 [Clozapine]	1	1	15.8%	46.9%	–	4.6	0	4.3	0	31.3%	–	–	–
CC(C)c1nc(CN(C)C(=O)N[C@@H](CCN2CCOCC2)C(=O)N[C@H](CC[C@H](Cc2ccccc2)NC(=O)OCc2cncs2)Cc2ccccc2)cs1 [Cobicistat (GS-9350), Cobicistat]	1	1	23%	20.7%	–	4.9	0	5.3	0	21.8%	–	–	–
CN(C)CCC=C1c2ccccc2C=Cc2ccccc21 [Cyclobenzaprine HCl]	1	1	45.2%	47.7%	–	3.3	0	2.1	0	46.5%	–	–	–
CN1CCC(=C2c3ccccc3C=Cc3ccccc32)CC1 [Cyproheptadine HCl]	1	1	22.8%	31.2%	–	3.8	0	3.0	0	27%	–	–	–
CC(C)(C)c1nc(-c2cccc(NS(=O)(=O)c3c(F)cccc3F)c2F)c(-c2ccnc(N)n2)s1 [Dabrafenib (GSK2118436), Dabrafenib]	1	1	36.3%	47%	–	3.9	0	5.5	0	41.6%	–	–	–
CN[C@H]1C(=O)N[C@@H]2Cc3ccc(cc3)Oc3cc4cc(c3O[C@@H]3O[C@H](C(=O)O)[C@@H](O)[C@H](O)[C@H]3NC(=O)CCCCCCCCC(C)C)Oc3ccc(cc3Cl)[C@@H](O)[C@@H]3NC(=O)[C@H](NC(=O)[C@@H]4NC(=O)[C@@H](NC2=O)c2cc(cc(O)c2Cl)Oc2cc1ccc2O)c1ccc(O)c(c1)-c1c(O[C@H]2O[C@H](CO)[C@@H](O)[C@H](O)[C@@H]2O)cc(O)cc1[C@@H](C(=O)NCCCN(C)C)NC3=O [Dalbavancin]	1	1	–	–	32.5%	5.8	0	6.2	0	–	25.7%	39.2%	–
NC(=O)C(c1ccccc1)(c1ccccc1)[C@@H]1CCN(CCc2ccc3c(c2)CCO3)C1 [Darifenacin HBr]	1	1	14.6%	34.8%	–	5.2	0	3.4	0	24.7%	–	–	–
CNCCCN1c2ccccc2CCc2ccccc21 [Desipramine Hydrochloride]	1	1	20%	23.7%	–	4.4	0	3.9	0	21.8%	–	–	–
O=C(Nc1ccccc1)OCC(CN1CCCCC1)OC(=O)Nc1ccccc1 (stereo not drawn) [Diperodon HCl]	1	1	24.2%	61.6%	–	4.6	0	4.4	0	42.9%	–	–	–
CN1CCC(OC(c2ccccc2)c2ccccc2)CC1 [Diphenylpyraline HCl]	1	1	33.2%	51.6%	42.4%	6.0	0	4.2	0	–	–	–	–
COc1cc2nc(N3CCN(C(=O)C4COc5ccccc5O4)CC3)nc(N)c2cc1OC (stereo not drawn) [Doxazosin Mesylate]	1	1	50.1%	9.2%	–	5.2	0	4.9	0	29.7%	–	–	–
CN(C)CCC=C1c2ccccc2COc2ccccc21 [Doxepin HCl]	1	1	29.2%	36.1%	–	4.9	0	5.7	0	32.6%	–	–	–
COc1cc2c(cc1OC)CN(CCc1ccc(NC(=O)c3cccc4c(=O)c5cccc(OC)c5[nH]c34)cc1)CC2 [Elacridar (GF120918), Elacridar]	1	1	24.4%	38.3%	–	4.6	0	5.8	0	31.4%	–	–	–
CCCCCCCC(=O)N[C@H](CN1CCCC1)[C@H](O)c1ccc2c(c1)OCCO2 [Eliglustat]	1	1	22.7%	20.4%	–	5.5	0	4.8	0	–	–	–	21.5%

Source: patent publication US20230285405A1, “Pharmaceuticals for Treating or Preventing Nidoviruses and Picornaviruses” (priority 2020, published 2023)
